Experimental data as given in ChEMBL document CHEMBL1201862, “PubChem BioAssay data set” (2004).
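Five concentrations, 48 hours, 96-well plates. At the GI50, growth is halved.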 The source made the active and inactive calls. Rule as the data show it: active = GI50 up to about 1.1 µM and inactive = higher.

Key:
Test in all cases: growth of human tumour cells (NCI), 48 h
Hs-578T = system: Hs-578T
PC-3 = system: PC-3
HOP-92 = system: HOP-92
U-251 = system: U-251
HCT-116 = system: HCT-116
UACC-257 = system: UACC-257
NCI/ADR-RES = system: NCI/ADR-RES
SK-MEL-2 = system: SK-MEL-2
K562 = system: K562
A549 = system: A549
HCT-15 = system: HCT-15
UO-31 = system: UO-31
RPMI-8226 = system: RPMI-8226
CAKI-1 = system: CAKI-1
OVCAR-5 = system: OVCAR-5
ACHN = system: ACHN
MDA-MB-231 = system: MDA-MB-231
LOX IMVI = system: LOX IMVI
MOLT-4 = system: MOLT-4
BT-549 = system: BT-549

Structure (SMILES)	GI50 (Hs-578T)	GI50 (PC-3)	GI50 (HOP-92)	GI50 (U-251)	GI50 (HCT-116)	GI50 (UACC-257)	GI50 (NCI/ADR-RES)	GI50 (SK-MEL-2)	GI50 (K562)	GI50 (A549)	GI50 (HCT-15) [µM]	GI50 (UO-31)	GI50 (RPMI-8226)	GI50 (CAKI-1)	GI50 (OVCAR-5)	GI50 (ACHN)	GI50 (MDA-MB-231)	GI50 (LOX IMVI)	GI50 (MOLT-4)	GI50 (BT-549)
O=C(NCCCCCCCCNC(=O)Nc1cccc2ccccc12)Nc1cccc2ccccc12	14.2 µM (inactive)	72.1 µM (inactive)	6.92 µM (inactive)	2.76 µM (inactive)	9.55 µM (inactive)	> 100 µM (inactive)	46.7 µM (inactive)	83.9 µM (inactive)	14.5 µM (inactive)	35.1 µM (inactive)	> 100	21.4 µM (inactive)	> 100 µM (inactive)	40.9 µM (inactive)	41.7 µM (inactive)	85.9 µM (inactive)	7.69 µM (inactive)	8.34 µM (inactive)	41.6 µM (inactive)	31.6 µM (inactive)
Cc1ccc(S(=O)(=O)ON2C(=O)c3c(N)c(C#N)c(-c4ccccc4)c(-c4ccccc4)c3C2=O)cc1	71.3 µM (inactive)	15.7 µM (inactive)	21.6 µM (inactive)	16.2 µM (inactive)	14.6 µM (inactive)	18.6 µM (inactive)	23.4 µM (inactive)	17.1 µM (inactive)	6.41 µM (inactive)	19.4 µM (inactive)	17.2		11.1 µM (inactive)	16 µM (inactive)	18 µM (inactive)	16.4 µM (inactive)	19.3 µM (inactive)	15.8 µM (inactive)	10.2 µM (inactive)	13.1 µM (inactive)
CCOC(=O)/C=C(\C(=O)OCC)n1cnc2c(N)ncnc21	19.7 µM (inactive)	13.3 µM (inactive)	2.28 µM (inactive)	7.94 µM (inactive)	3.11 µM (inactive)	14.5 µM (inactive)	17.2 µM (inactive)	16.8 µM (inactive)	1.99 µM (inactive)	17.1 µM (inactive)	3.08	16.5 µM (inactive)	2.02 µM (inactive)	1.4 µM (inactive)	5.83 µM (inactive)	6.67 µM (inactive)	7.31 µM (inactive)	3.43 µM (inactive)	2.44 µM (inactive)	12.1 µM (inactive)
C/C(=N\O)c1cccc[n+]1Cc1ccccc1	> 100 µM (inactive)	> 100 µM (inactive)	> 100 µM (inactive)	> 100 µM (inactive)	> 100 µM (inactive)	> 100 µM (inactive)	> 100 µM (inactive)	> 100 µM (inactive)	> 100 µM (inactive)	> 100 µM (inactive)	> 100	> 100 µM (inactive)	> 100 µM (inactive)	> 100 µM (inactive)	> 100 µM (inactive)	> 100 µM (inactive)	> 100 µM (inactive)	> 100 µM (inactive)	> 100 µM (inactive)	> 100 µM (inactive)
O=C(O)C(=Cc1ccnc2ccccc12)C(=O)O	> 100 µM (inactive)	> 100 µM (inactive)	> 100 µM (inactive)	> 100 µM (inactive)	> 100 µM (inactive)	> 100 µM (inactive)	> 100 µM (inactive)	> 100 µM (inactive)	> 100 µM (inactive)	> 100 µM (inactive)	> 100		> 100 µM (inactive)	> 100 µM (inactive)	> 100 µM (inactive)	> 100 µM (inactive)	> 100 µM (inactive)	> 100 µM (inactive)	> 100 µM (inactive)	> 100 µM (inactive)
O=C(/C=C/C=C/c1ccccc1)c1ccc2c(c1)CCCC2	4.84 µM (inactive)	36.5 µM (inactive)	30 µM (inactive)	35 µM (inactive)	31.6 µM (inactive)	31.1 µM (inactive)	25.8 µM (inactive)	83.2 µM (inactive)	30.9 µM (inactive)	49.8 µM (inactive)	36	61 µM (inactive)	24.4 µM (inactive)	74.3 µM (inactive)	> 100 µM (inactive)	70.8 µM (inactive)	96.6 µM (inactive)	30.1 µM (inactive)	25.9 µM (inactive)	26 µM (inactive)
O=C(O)CCSC(CC1(c2ccc(Cl)cc2)NC(=O)CCS1)c1ccccc1 (centres undefined)	12.9 µM (inactive)	18.7 µM (inactive)	33.8 µM (inactive)	10.4 µM (inactive)	4.71 µM (inactive)	21.9 µM (inactive)	20.8 µM (inactive)	18.7 µM (inactive)	10.8 µM (inactive)	24.2 µM (inactive)	8.09	20.7 µM (inactive)	3.56 µM (inactive)	16.9 µM (inactive)	17.9 µM (inactive)	25.5 µM (inactive)	22.1 µM (inactive)	14.6 µM (inactive)	12.5 µM (inactive)	17 µM (inactive)
COc1ccccc1/C=N/Nc1nnc2c3ccccc3c3ncccc3c2n1	21 µM (inactive)	> 100 µM (inactive)	14.6 µM (inactive)	37.3 µM (inactive)	72.4 µM (inactive)	> 100 µM (inactive)	38.1 µM (inactive)	24.2 µM (inactive)	70.8 µM (inactive)	> 100 µM (inactive)	> 100	> 100 µM (inactive)	69.2 µM (inactive)	> 100 µM (inactive)	79.4 µM (inactive)	57 µM (inactive)	26.2 µM (inactive)	64.1 µM (inactive)	60.3 µM (inactive)	41.7 µM (inactive)
CC(C)[Si]1(C(C)C)OCC2OC(n3ccc(=O)[nH]c3=O)C([Se]c3ccccc3)C2O[Si](C(C)C)(C(C)C)O1 (centres undefined)	0.762 µM (active)	3.35 µM (inactive)	3.5 µM (inactive)	2.07 µM (inactive)	2.62 µM (inactive)	4.31 µM (inactive)	11.2 µM (inactive)	6.79 µM (inactive)		9.46 µM (inactive)	4.39	8.77 µM (inactive)	2.95 µM (inactive)	11.5 µM (inactive)	9.48 µM (inactive)	2.61 µM (inactive)	2.83 µM (inactive)	0.769 µM (active)	7.38 µM (inactive)	11.6 µM (inactive)
O=C1c2c(Br)sc(Br)c2[C@@H](Cl)[C@H]1Cl	36.6 µM (inactive)	18.7 µM (inactive)	21 µM (inactive)	14.5 µM (inactive)	22.8 µM (inactive)	15.9 µM (inactive)	33.1 µM (inactive)	18.9 µM (inactive)	10 µM (inactive)	29 µM (inactive)	19.7	20.2 µM (inactive)	18.2 µM (inactive)	20.7 µM (inactive)	20.8 µM (inactive)	19.2 µM (inactive)	19.5 µM (inactive)	15.2 µM (inactive)	14.9 µM (inactive)	20.6 µM (inactive)
Nc1c(S(=O)(=O)O)cc(S(=O)(=O)O)c2ccc(/N=N/c3ccccc3)c(O)c12	> 100 µM (inactive)	> 100 µM (inactive)	> 100 µM (inactive)	> 100 µM (inactive)	> 100 µM (inactive)	> 100 µM (inactive)	> 100 µM (inactive)	> 100 µM (inactive)	43.3 µM (inactive)	> 100 µM (inactive)	> 100	> 100 µM (inactive)	> 100 µM (inactive)	> 100 µM (inactive)	> 100 µM (inactive)	> 100 µM (inactive)	> 100 µM (inactive)	> 100 µM (inactive)		> 100 µM (inactive)
Cc1nc(-c2ccccc2)cn2c1nc1ccccc12	35.4 µM (inactive)	24.7 µM (inactive)	21 µM (inactive)	18.6 µM (inactive)	25.9 µM (inactive)	29 µM (inactive)	20.9 µM (inactive)	20.2 µM (inactive)	> 61.7 µM (inactive)	19.4 µM (inactive)	16.4	13.6 µM (inactive)	41.1 µM (inactive)	21.1 µM (inactive)	> 31.6 µM (inactive)	21.7 µM (inactive)	29.9 µM (inactive)	20.8 µM (inactive)	44 µM (inactive)	17.4 µM (inactive)
COc1cc(C2SCC(=O)N2c2ccc(Cl)cc2)cc(OC)c1OC (centres undefined)	> 100 µM (inactive)	46.2 µM (inactive)	> 49.1 µM (inactive)	> 79.4 µM (inactive)	8.11 µM (inactive)	22.6 µM (inactive)	20.4 µM (inactive)	8.51 µM (inactive)	0.11 µM (active)	> 100 µM (inactive)	13.9	1.19 µM (inactive)	8.93 µM (inactive)	10.4 µM (inactive)	0.252 µM (active)		> 100 µM (inactive)	1.03 µM (active)	1.69 µM (inactive)	20.2 µM (inactive)
O=C1c2cc(Br)ccc2-c2ccc3c4ccc5c6c(ccc(c7ccc1c2c73)c64)C(=O)c1cc(Br)ccc1-5	> 100 µM (inactive)	> 100 µM (inactive)	> 100 µM (inactive)	> 100 µM (inactive)	> 100 µM (inactive)	> 100 µM (inactive)	> 100 µM (inactive)	> 100 µM (inactive)	> 100 µM (inactive)	> 100 µM (inactive)	> 100	> 100 µM (inactive)	> 100 µM (inactive)	> 100 µM (inactive)	> 100 µM (inactive)	> 100 µM (inactive)	> 100 µM (inactive)	> 100 µM (inactive)		> 100 µM (inactive)
